Measured values as given in patent US20100166662A1, “MAGNETIC RESONANCE IMAGING METHOD USING VANADYL-BASED CONTRAST AGENTS” (The University of Chicago, priority 2006, published 2010).

What was measured:
3T3-L1 adipocytes = assay: Uptake of 2-deoxy-D-[1-14C]glucose by 3T3-L1 adipocytes; assay type: cell-based
Description: The effect of vanadyl compounds on uptake of 2-deoxy-D-[1-^14C]glucose by 3T3-L1 adipocytes was measured using methods described in Makinen, M. W., et al., “Structural Origins of the Insulin-Mimetic Activity of Bis(acetylacetonato)oxovanadium(IV),” J. Biol. Chem. 277 (2002) pp. 12215-12220, which is incorporated herein by reference. Serum-starved, differentiated […] adipocytes were used in the metabolic assays. Cells were washed twice with phosphate-buffered isotonic saline at 37° C. and serum-starved for 2.5 hours in Krebs-Ringer buffer lacking bovine serum albumin or serum. The medium was removed, and cells were incubated for 30 minutes in buffer with different concentrations of VO^2+-based contrast agents with or without serum albumin (1 mM) prior to measuring glucose uptake rates. Glucose transport rates were measured by the addition of 20 μM 2-deoxy-D-[1-^14C] glucose.

p-AKT = assay: Cell signaling study, Western blot of p-AKT in Caco-2 and HCA-7 cells; assay type: cell-based, human; conditions: 5 min; for level of p-AKT compared to controls: Caco-2 and HCA-7 cells
Description: (§1) HCA-7 and Caco-2 cells derived from human colonic adenocarcinomas obtained from the American Type Culture Collection, Manassas, Va. were cultured at 37° C. in a humidified atmosphere of 5% CO2-95% air in 6-well plates (250,000 cells/well/2 mL in 5% serum medium). When cells were ˜70-80% confluent, cells were transferred to serum-free media and kept overnight. A vanadyl compound was added to a well to a final concentration of 100, 250, or 500 μM and incubated for 5 minutes. In each 6-well plate, 2 wells were set as controls and 4 wells were set for one desired concentration of a vanadyl compounds. Cells were then homogenized in 2× Laemmli sodium dodecyl sulfate (SDS) buffer. Samples were boiled for 5 minutes at 100° C. and proteins quantified using the RC-DC protein assay (Bio-Rad). Western blotting was then carried out, briefly described as follows. SDS-treated samples (50 μg/lane) were separated by SDS-polyacrylamide gel electrophoresis (PAGE) on a 4-15% resolving gel. Pre-stained molecular weight markers were included in each gel. Gels were electroblotted to immobilon-P transfer membranes (Millipore Billerica, Mass.). Following blocking of non-specific antibody binding, the blots were exposed to rabbit polyclonal anti-pAKT (Cell Signaling Technology, Danvers, Mass.) or mouse monoclonal anti-pERK (Santa Cruz Biotechnology, Inc., Santa Cruz, Calif.) and developed with secondary antibody using standard methods. The blots were washed, and the p-AKT and p-ERK were detected in film and digitized for final quantification.
FIG. 3 illustrates two Western blots of p-AKT using Caco-2 (left panel) and HCA-7 cells (right panel) treated with VO(acac)2 in a concentration of 100, 250 or 500 μM (top, middle and bottom rows, respectively). Lane 1 is the control; lanes 2 and 3 are duplicates of cells exposed to VO(acac)2 a particular concentration of VO(acac)2. These blots were analyzed by […] on X-OMAT™ autoradiogram films using an enhanced chemiluminesence system.

p-ERK = assay: Cell signaling study, Western blot of p-ERK in Caco-2 and HCA-7 cells; assay type: cell-based, human; conditions: 100, 250 or 500 μM, 5 min
Description: as §1, with “Following blocking of non-specific antibody binding, the blots were exposed to rabbit polyclonal anti-pAKT (Cell Signaling Technology, Danvers, Mass.) or mouse monoclonal anti-pERK (Santa Cruz Biotechnology, Inc., Santa Cruz, Calif.) and developed with secondary antibody using standard methods.” left out

[1] = T1 relaxivity of the contrast agent in buffer; assay type: physicochemical; conditions: 0.01 M HEPES buffer pH 7.4 with 0.15 M NaCl; 4.7 Tesla
Description: The T1 relaxation times of VO(acac)2 in 0.01 M HEPES buffer at pH 7.4 with 0.15 M NaCl were determined. With the determined T1 values at different concentrations of VO(acac)2, the relaxivity was determined using equation 1,
where T1m is the measured T1 for VO(acac)2, T1w is the T1 for water, C is the concentration of the contrast agent, and r1 is the relaxivity. The relaxivity for VO(acac)2 of 2.5±0.2 mM^−1s^−1 is slightly lower but close to that of known contrast agents of gadolinium complexes of 4.3±0.2 mM^−1s^−1 at 4.7 Tesla. This means that VO(acac)2 can produce significant, easily detectable changes in MR image intensity.

[2] = Toxicity study in tumor-bearing nude mice (blood parameters, i-STAT); assay type: in vivo; conditions: 1 mmol/kg via tail vein, monitored over three days, mice bearing AT6.1 tumor
Description: Toxicity studies were performed with tumor-bearing nude mice weighing about 25-30 grams (n=5). An AT6.1 prostate tumor was implanted subcutaneously in the hind limb of the mouse. 1 mmol/kg of VO(acac)2 was administered through a catheter placed in the tail vein. The VO(acac)2 was dissolved in dimethyl sulfoxide and the resulting solution was diluted with saline. The final concentration of DMSO was about 5% by volume. The solution was about 10 mM VO(acac)2.
The pH, pCO2, HCO3^−, TCO2, serum O2, Na^+, K^+, Ca^2+, glucose, blood urea nitrogen (BUN), Hematocrit (Hct) and hemoglobin (Hb) were monitored using an i-STAT analyzer (East Windsor, N.J.) by taking ˜30 μL blood samples over a period of three days.

AT6.1 prostate tumor = assay: In vivo MRI and contrast media dynamics in rats bearing AT6.1 tumors; design: species or system Copenhagen rat; conditions: rat
Description: MRI studies were performed using a 4.7 Tesla Bruker scanner with multi-slice echo-planner spectroscopic imaging (EPSI). The scanning parameters were as follows: TR/TE of 800/80 msec; field of view 40 mm; array size of 256×256; slice thickness of 0.5 mm; and, an average of 1.
First, high-resolution reference images were acquired by conventional spin echo and gradient echo pulse sequences using multiple slices. These reference images provided anatomic reference information and were used to accurately measure tumor volume. Then multi-slice (usually 3 slices) echo-planner spectroscopic imaging (EPSI) with repetition time (TR) of 800 msec and echo time (TE) of 80 msec were acquired. Acquisition of MRI data using high-resolution EPSI pulse sequence may also be used. These sequence images were acquired with spatial resolution of 200 micron in-plane in ˜500 micron slices and spectral resolution of 2 Hz. These images were acquired at the same spatial resolution as conventional images but provided increased sensitivity to contrast media effects.
A Dunning AT6.1 prostate tumor was implanted subcutaneously in the hind limb of a Copenhagen rat. The tumor was monitored and imaging began when the tumor reached a size of 5-10 mm. The VO^2+-based contrast agent was dissolved in dimethyl sulfoxide and the resulting solution was diluted with saline. The final concentration of DMSO was about 5% by volume. The solution was about 10 mM VO^2+-based contrast agent.
After 6 to 8 pre-contrast MR images were obtained as a reference, 0.15 mmol/kg of VO(acac)2 was injected through a catheter placed in the tail vein of the rat over 5 minutes. During MR imaging, the rats were anesthetized using isofluorane mixed with air and oxygen flowing through a mask. Exhaust gases were eliminated through an F-Air canister attached to the mask set up. Temperature was monitored continuously by a rectal thermometer and controlled with a warm water blanket. Heart rate, respiration rate, and blood pressure were monitored using an optical detector system from SA Instruments (Stony Brook, N.Y.). To minimize motion artifacts, rats were wrapped in co-flex and taped to a Plexiglass board. The leg was secured through the coil in a plastic tube and taped to the cradle.
Post-contrast EPSI scans were acquired for about 4 hours. Each EPSI scan took about 3.5 minutes. Images were used in which the intensity was proportional to the peak height of the water resonance in each voxel. […]
0.15 mmol/kg of VO(acac)2 was injected through a catheter placed in the tail vein of the rat over 5 minutes. […] Temperature was monitored continuously by a rectal thermometer and controlled with a warm water blanket. Heart rate, respiration rate, and blood pressure were monitored using an optical detector system from SA Instruments (Stony Brook, N.Y.). […]

AT6.1 prostate tumors = assay: Vanadyl concentration in tumor and muscle tissue by atomic absorption spectroscopy; assay type: in vivo, nude mice; conditions: at 5 hours after about 0.15 mmol/kg i.v., mice
Description: AT6.1 prostate tumors were implanted subcutaneously in the hind limbs of nude mice. The tumors were monitored and allowed to grow to about 6-8 mm over a period of about 2 weeks. The VO^2+-based contrast agent was dissolved in dimethyl sulfoxide and the resulting solution was diluted with saline. The final concentration of DMSO was about 5% by volume. The solution was about 10 mM VO^2+-based contrast agent. VO(acac)2 was added slowly to the tail vein of each mouse using a syringe infusion pump (Harvard Apparatus, South Natick, Mass.). A total of 100 μL of solution were added in 5 minutes (flow rate=20 μL/minute) for a total dosage of about 0.15 mmol/kg. All mice were kept in a cage and monitored after injection. The mice were then sacrificed at various times. Tissue samples of the tumors and muscles were removed after a mouse was sacrificed. The tissue samples were weighed and then digested by wet digestion using H2O2 and HNO3. Atomic absorption measurements were carried out using Perkin Elmer AAnalyst 300 with an HGA 800 furnace. Control sets (n=3) were free of contrast agent. Measurements were based on standard curves of known vanadyl concentration with a correlation coefficient of 0.99820.

[3] = Solubility in aqueous solutions at physiological pH; assay type: physicochemical
Description: Bis(acetylamido)oxovanadium(IV) [VO(acac-NH2)2]. VO(acac-NH2)2 was synthesized according to the procedure described by Crans et al., “Bis(acetylamido)oxovanadium(IV) Complexes: Solid State and Solution Studies,” J. Chem. Soc. Dalton Trans. (2001) pp. 3337-3345. One equivalent of vanadyl sulfate was dissolved in water followed by the addition of 3-equivalents of acetoacetamide under constant stirring. A solution of 10% sodium bicarbonate was then added dropwise to raise the pH from 1.5 to 3.6 in order to form a suspension. A bluish precipitate was obtained after allowing the solution to stand for one day at 4° C. The precipitate was filtered off, washed with a small amount of chloroform, and dried under vacuum.
Bis(acetylacetanato-bisNH2)oxovanadium(IV) [VO(acac-(NH2)2)2]. VO(acac-(NH2)2)2 is synthesized as follows. One equivalent of vanadyl sulfate is dissolved in water followed by the addition of 3 equivalents of malonamide under constant stirring. A solution of 10% sodium bicarbonate is then added dropwise to raise the pH in order to form a suspension. A bluish precipitate is obtained after standing the solution for one day at 4° C. The precipitate is filtered off, washed with a small amount of chloroform, and dried under vacuum.

[4] = 0.15 mmol/kg i.v. over 5 minutes, AT6.1 tumor

Cc1occc(=O)c1[O-].Cc1occc(=O)c1[O-].[O]=[V+2] [VO(malto)2, Bis(maltolato)oxovanadium(IV)]
dependence of increase in glucose uptake on compound:serum albumin ratio (3T3-L1 adipocytes; data not shown): no clear dependence | enhancement of glucose uptake per equivalent of VO2+ compared with VO(acac)2 and VO(OPT)2 (3T3-L1 adipocytes; data not shown): markedly less | glucose uptake (effect in words) (3T3-L1 adipocytes; with or without 1 mM serum albumin, data not shown): facilitate glucose uptake

O=S(=O)([O-])[O-].[O]=[V+2] [VOSO4, vanadyl sulfate, reference compound]
activation of p-AKT (in words) (p-AKT; 100, 250 or 500 μM): did not induce measurable activation | activation of p-ERK (in words) (p-ERK): did not induce measurable activation

Bis(acetylacetonato)oxovanadium(IV) [VO(acac)2]
relaxivity r1 [1]: 2.5 ± 0.2 mM⁻¹ s⁻¹ | uptake of glucose (3T3-L1 adipocytes; in the presence of equimolar concentrations of serum albumin, 30 min incubation): maximally enhanced | level of p-AKT compared to controls (p-AKT; 100 μM): 2 fold | level of p-AKT compared to controls (p-AKT; 250 μM): 5 fold | level of p-AKT compared to controls (p-AKT; 500 μM): 12 fold | blood pH, pCO2, HCO3−, TCO2, serum O2, Na+, K+, Ca2+, glucose, BUN, Hct, Hb [2]: fell within the normal range | MR signal enhancement in tumor regions, often as high as (AT6.1 prostate tumor; [4]): ≤ 100% | MR signal enhancement in tumor regions, typical (AT6.1 prostate tumor; [4]): greater than 50% | enhancement in muscle for a long time after injection (AT6.1 prostate tumor; 0.15 mmol/kg i.v.): relatively little enhancement in muscle | T1 and T2* contrast (AT6.1 prostate tumor; 0.15 mmol/kg i.v., 4.7 Tesla): excellent T1 and T2* contrast | vanadyl concentration in tumor tissue (AT6.1 prostate tumors): remained relatively high

Bis(acetylamido)oxovanadium(IV) [VO(acac-NH2)2]
solubility in aqueous solutions [3]: completely soluble
